# From patent US6350909B1, “Methoxymino-phenylacetamide derivatives and their utilization as pesticides” (Bayer Aktiengesellschaft, priority 1998, dated 2002)
row,melting point,Structure (SMILES)
1,134 to 138 °C,"COCC(=O)NC(=O)C(=NOC)c1ccccc1CO/N=C(\C)c1ccc(C(F)(F)F)cc1 [Example 1, 2-methoxy-N-(methoxyimino-{2-[1-(4-trifluoromethylphenyl)-ethylideneaminooxymethyl]-phenyl}-acetyl)-acetamide]"
2,92 °C (dec.),"CON=C(C(=O)NC(=O)CCl)c1ccccc1CO/N=C(\C)c1ccc(C(F)(F)F)cc1 [Example 2, 2-chloro-N-(methoxyimino-{2-[1-(4-trifluoromethylphenyl)-ethylideneaminooxymethyl]-phenyl}-acetyl)-acetamide]"
